Experimental data as given in PubChem BioAssay (NCI).
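All cell lines were grown in 96-well plates and treated with compound for 48 hours. GI50 = concentration required for 50% inhibition of growth. The concentration for full growth arrest is given as TGI.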

What was measured:
Experiment in all cases: NCI anticancer screen, dose series, 48 h
786-0 renal = system: 786-0 renal
A498 renal = system: A498 renal
A549 NSCLC = system: A549 NSCLC
ACHN renal = system: ACHN renal
BT-549 breast = system: BT-549 breast
CAKI-1 renal = system: CAKI-1 renal
CCRF-CEM leukemia = system: CCRF-CEM leukemia
COLO 205 colon = system: COLO 205 colon
DU-145 prostate = system: DU-145 prostate
EKVX NSCLC = system: EKVX NSCLC
HCC-2998 colon = system: HCC-2998 colon
HCT-116 colon = system: HCT-116 colon
HCT-15 colon = system: HCT-15 colon
HL-60(TB) leukemia = system: HL-60(TB) leukemia
HOP-62 NSCLC = system: HOP-62 NSCLC
HOP-92 NSCLC = system: HOP-92 NSCLC
HS 578T breast = system: HS 578T breast
HT29 colon = system: HT29 colon
IGROV1 ovarian = system: IGROV1 ovarian
K-562 leukemia = system: K-562 leukemia
KM12 colon = system: KM12 colon
LOX IMVI melanoma = system: LOX IMVI melanoma
M14 melanoma = system: M14 melanoma
MALME-3M melanoma = system: MALME-3M melanoma
MCF7 breast = system: MCF7 breast
MDA-MB-231 breast = system: MDA-MB-231 breast
MDA-MB-435 = system: MDA-MB-435
MDA-MB-468 breast = system: MDA-MB-468 breast
MOLT-4 leukemia = system: MOLT-4 leukemia
NCI-H226 lung = system: NCI-H226 lung
NCI-H23 lung = system: NCI-H23 lung
NCI-H460 lung = system: NCI-H460 lung
NCI-H522 lung = system: NCI-H522 lung
NCI/ADR-RES ovarian = system: NCI/ADR-RES ovarian
OVCAR-3 ovarian = system: OVCAR-3 ovarian
OVCAR-4 ovarian = system: OVCAR-4 ovarian
OVCAR-5 ovarian = system: OVCAR-5 ovarian
OVCAR-8 ovarian = system: OVCAR-8 ovarian
PC-3 prostate = system: PC-3 prostate
RPMI-8226 leukemia = system: RPMI-8226 leukemia
RXF 393 renal = system: RXF 393 renal
SF-268 CNS = system: SF-268 CNS
SF-295 CNS = system: SF-295 CNS
SF-539 CNS = system: SF-539 CNS
SK-MEL-2 melanoma = system: SK-MEL-2 melanoma
SK-MEL-28 melanoma = system: SK-MEL-28 melanoma
SK-MEL-5 melanoma = system: SK-MEL-5 melanoma
SK-OV-3 ovarian = system: SK-OV-3 ovarian
SN12C renal = system: SN12C renal
SNB-19 CNS = system: SNB-19 CNS
SNB-75 CNS = system: SNB-75 CNS
SR leukemia = system: SR leukemia
SW-620 colon = system: SW-620 colon
T-47D breast = system: T-47D breast
TK-10 renal = system: TK-10 renal
U251 CNS = system: U251 CNS
UACC-257 melanoma = system: UACC-257 melanoma
UACC-62 melanoma = system: UACC-62 melanoma
UO-31 renal = system: UO-31 renal

COc1ccccc1-n1cc(C#N)c(N)c1C(=O)c1ccc(Cl)cc1Cl showed a GI50 (786-0 renal) of 7.12 µM, a TGI (786-0 renal) greater than 100 µM and a GI50 (A498 renal) of 72 µM. It also gave a TGI (A498 renal) greater than 100 µM, a GI50 (A549 NSCLC) of 7.39 µM and a TGI (A549 NSCLC) greater than 100 µM. The GI50 (ACHN renal) was 7.79 µM, the TGI (ACHN renal) was greater than 100 µM and the GI50 (BT-549 breast) was 3.41 µM. It also gave a TGI (BT-549 breast) of 58.5 µM, a GI50 (CAKI-1 renal) of 4.7 µM and a TGI (CAKI-1 renal) of 28.4 µM. The GI50 (CCRF-CEM leukemia) was 4.68 µM, the TGI (CCRF-CEM leukemia) was greater than 100 µM and the GI50 (COLO 205 colon) was 5.7 µM. For the same compound, the TGI (COLO 205 colon) was greater than 100 µM, the GI50 (DU-145 prostate) was 9.73 µM and the TGI (DU-145 prostate) was greater than 100 µM. For the same compound, the GI50 (EKVX NSCLC) was 8.24 µM, the TGI (EKVX NSCLC) was greater than 100 µM and the GI50 (HCC-2998 colon) was 12.4 µM. For the same compound, the TGI (HCC-2998 colon) was greater than 100 µM, the GI50 (HCT-116 colon) was 4.02 µM and the TGI (HCT-116 colon) was 28.7 µM. The GI50 (HCT-15 colon) was 3.62 µM, the TGI (HCT-15 colon) was 64.9 µM and the GI50 (HL-60(TB) leukemia) was 3.15 µM. For the same compound, the TGI (HL-60(TB) leukemia) was 70.4 µM, the GI50 (HOP-62 NSCLC) was 6.4 µM and the TGI (HOP-62 NSCLC) was 87.7 µM. For the same compound, the GI50 (HOP-92 NSCLC) was 16.8 µM, the TGI (HOP-92 NSCLC) was greater than 100 µM and the GI50 (HS 578T breast) was 3.02 µM. It also gave a TGI (HS 578T breast) of 58.1 µM, a GI50 (HT29 colon) of 3.18 µM and a TGI (HT29 colon) greater than 100 µM. It also gave a GI50 (IGROV1 ovarian) of 7.49 µM, a TGI (IGROV1 ovarian) greater than 100 µM and a GI50 (K-562 leukemia) of 3.63 µM. It also gave a TGI (K-562 leukemia) greater than 100 µM, a GI50 (KM12 colon) of 3.9 µM and a TGI (KM12 colon) greater than 100 µM. It also gave a GI50 (LOX IMVI melanoma) of 4.89 µM, a TGI (LOX IMVI melanoma) greater than 100 µM and a GI50 (M14 melanoma) of 3.27 µM. It also gave a TGI (M14 melanoma) greater than 100 µM, a GI50 (MALME-3M melanoma) of 4.2 µM and a TGI (MALME-3M melanoma) greater than 100 µM. It also gave a GI50 (MCF7 breast) of 3.94 µM, a TGI (MCF7 breast) of 35.2 µM and a GI50 (MDA-MB-231 breast) of 9.05 µM. For the same compound, the TGI (MDA-MB-231 breast) was greater than 100 µM, the GI50 (MDA-MB-435) was 1.92 µM and the TGI (MDA-MB-435) was 4.41 µM. The GI50 (MDA-MB-468 breast) was 2.48 µM, the TGI (MDA-MB-468 breast) was 8.82 µM and the GI50 (MOLT-4 leukemia) was 4.84 µM. It also gave a TGI (MOLT-4 leukemia) greater than 100 µM, a GI50 (NCI-H226 lung) of 5.79 µM and a TGI (NCI-H226 lung) of 64.3 µM. The GI50 (NCI-H23 lung) was 7.55 µM, the TGI (NCI-H23 lung) was greater than 100 µM and the GI50 (NCI-H460 lung) was 4.66 µM. The TGI (NCI-H460 lung) was greater than 100 µM, the GI50 (NCI-H522 lung) was 1.87 µM and the TGI (NCI-H522 lung) was 5.12 µM. It also gave a GI50 (NCI/ADR-RES ovarian) of 3.55 µM, a TGI (NCI/ADR-RES ovarian) of 64.2 µM and a GI50 (OVCAR-3 ovarian) of 3.86 µM. The TGI (OVCAR-3 ovarian) was 18.6 µM, the GI50 (OVCAR-4 ovarian) was 8.96 µM and the TGI (OVCAR-4 ovarian) was greater than 100 µM. It also gave a GI50 (OVCAR-5 ovarian) of 9.71 µM, a TGI (OVCAR-5 ovarian) greater than 100 µM and a GI50 (OVCAR-8 ovarian) of 21 µM. It also gave a TGI (OVCAR-8 ovarian) greater than 100 µM, a GI50 (PC-3 prostate) of 5.6 µM and a TGI (PC-3 prostate) greater than 100 µM. The GI50 (RPMI-8226 leukemia) was 9.39 µM, the TGI (RPMI-8226 leukemia) was greater than 100 µM and the GI50 (RXF 393 renal) was 4.37 µM. For the same compound, the TGI (RXF 393 renal) was 39.3 µM, the GI50 (SF-268 CNS) was 9.77 µM and the TGI (SF-268 CNS) was greater than 100 µM. It also gave a GI50 (SF-295 CNS) of 3.72 µM, a TGI (SF-295 CNS) of 27 µM and a GI50 (SF-539 CNS) of 3.37 µM. It also gave a TGI (SF-539 CNS) of 11.5 µM, a GI50 (SK-MEL-2 melanoma) of 2.69 µM and a TGI (SK-MEL-2 melanoma) of 7.5 µM. The GI50 (SK-MEL-28 melanoma) was 7.58 µM, the TGI (SK-MEL-28 melanoma) was greater than 100 µM and the GI50 (SK-MEL-5 melanoma) was 4.84 µM. The TGI (SK-MEL-5 melanoma) was greater than 100 µM, the GI50 (SK-OV-3 ovarian) was 3.36 µM and the TGI (SK-OV-3 ovarian) was 28.3 µM. The GI50 (SN12C renal) was 5.24 µM, the TGI (SN12C renal) was greater than 100 µM and the GI50 (SNB-19 CNS) was 6.6 µM. It also gave a TGI (SNB-19 CNS) of 61.6 µM, a GI50 (SNB-75 CNS) of 2.61 µM and a TGI (SNB-75 CNS) of 8.54 µM. For the same compound, the GI50 (SR leukemia) was 3.53 µM, the TGI (SR leukemia) was greater than 100 µM and the GI50 (SW-620 colon) was 3.98 µM. The TGI (SW-620 colon) was greater than 100 µM, the GI50 (T-47D breast) was 4.53 µM and the TGI (T-47D breast) was greater than 100 µM. The GI50 (TK-10 renal) was 52.9 µM, the TGI (TK-10 renal) was greater than 100 µM and the GI50 (U251 CNS) was 4.45 µM. It also gave a TGI (U251 CNS) greater than 100 µM, a GI50 (UACC-257 melanoma) of 6.31 µM and a TGI (UACC-257 melanoma) greater than 100 µM. For the same compound, the GI50 (UACC-62 melanoma) was 3.67 µM, the TGI (UACC-62 melanoma) was 42.8 µM and the GI50 (UO-31 renal) was 7.87 µM. It also gave a TGI (UO-31 renal) greater than 100 µM.
